Laboratory results reported in patent publication US20250019385A1, “SPIROCYCLIC ANNULATED 2-AMINO-3-CYANO THIOPHENES AND DERIVATIVES FOR THE TREATMENT OF CANCER” (Boehringer Ingelheim International GmbH, priority 2023, published 2025).
Values after ≈ are worked out from the molar mass of the structure shown. Read-outs that look alike come from different tables or passages of the source.

Key:
Ba/F3 cells KRAS G12V = assay: Ba/F3 proliferation assay (KRAS G12V); format: cell-based; details: Mus musculus, BaF3, 72 h, AlamarBlue viability
Protocol: Ba/F3 cells are ordered from DSMZ (ACC300, Lot17) and grown in RPMI-1640 (ATCC 30-2001)+10% FCS+10 ng/mL IL-3 at 37° C. in 5% […] atmosphere. Plasmids containing KRASG12 mutants (i.e. […], G12C, G12V) are obtained from GeneScript. To generate KRASG12-dependent Ba/F3 models, Ba/F3 cells are transduced with retroviruses containing vectors that harbor KRASG12 isoforms. Platinum-E cells (Cell Biolabs) are used for retrovirus packaging. Retrovirus is added to Ba/F3 cells. To ensure infection, 4 μg/mL polybrene is added and cells are spinfected. Infection efficiency is confirmed by measuring GFP-positive cells using a cell analyzer. Cells with an infection efficiency of 10% to 20% are further cultivated and puromycin selection with 1 μg/mL is initiated. As a control, parental Ba/F3 cells are used to show selection status. Selection is considered successful when parental Ba/F3 cells cultures died. To evaluate the transforming potential of KRASG12 mutations, the growth medium is no longer supplemented with IL-3. Ba/F3 cells harboring the empty vector are used as a control. Approximately ten days before conducting the experiments, puromycin is left out.
For proliferation assays, Ba/F3 cells are seeded into 384-well plates at 1.5×1 (M cells/60 μL in growth media (RPMI-1640+10% FCS). Compounds (10 mM stock in DMSO) are added at logarithmic dose series using the ECHO acoustic liquid handler system (Beckman Coulter), normalizing for added DMSO and including DMSO controls. All compound treatments are performed in technical duplicates. For the TO time point measurement, untreated cells are analyzed at the time of compound addition. Treated cells are incubated for 72 h at 37° C. with 5% CO2 and cell viability is measured in the PerkinElmer Envision Multimode Reader using AlamarBlue™ (ThermoFisher) viability stain. Viability (stated as percent of control) is defined as relative fluorescence units RFU of each well divided by the RFU of cells in DMSO controls. IC50 values are determined from viability measurements by non-linear regression using a four-parameter model.

[1] = Solubility measurement (DMSO solution precipitation method); format: physicochemical; details: aqueous buffer, kinetic from dmso stock
Protocol: A 10 mM DMSO stock solution of a test compound is used to determine its aq. solubility. The DMSO solution is diluted with an aq. medium (McIlvaine buffer with pH=4.5 or 6.8) to a final concentration of 250 μM. After 24 h of shaking at ambient temperature a potentially formed precipitate is removed by filtration. The concentration of the test compound in the filtrate is determined by LC-UV methods by calibrating the signal to the signal of a reference solution with complete dissolution of the test compound in acetonitrile/water (1:1) with known concentration.

MKN1 cells = assay: MKN1 CTG proliferation assay (120 h) (gastric cancer, wt amplified); format: cell-based; details: Homo sapiens, MKN-1
Protocol: (§1) MKN1 cells (JCRB0252) are dispensed into black 384-well plates, flat and clear bottom (Greiner, PNr. 781091) at a density of 200 cells per well in 60 μl RPMI-1640 ATCC-Formulation (Gibco #A10491)+10% FCS (fetal calf serum, HyClone, SH30084.03). Cells are incubated overnight at 37° C. in a humidified tissue culture incubator at 5% CO2. Compounds (10 mM stock in DMSO) are added at logarithmic dose series using the ECHO acoustic liquid handler system (Beckman Coulter), normalizing for added DMSO and including DMSO controls. All compound treatments are performed in technical duplicates. For the TO time point measurement, untreated cells are analyzed at the time of compound addition. Plates are incubated for 120 h, and cell viability is measured using CellTiter-Glo luminescent cell viability reagent (Promega product code G7570). Viability (stated as percent of control) is defined as relative luminescence units RLU of each well divided by the RLU of cells in DMSO controls. IC50 values are determined from viability measurements by non-linear regression using a four-parameter model.
(§2) IC50 values of representative compounds according to the invention measured with these assays in the indicated cell lines are presented in Table 46.

NCI-H727 cells = assay: NCI-H727 CTG proliferation assay (120 h) (lung cancer, G12V); format: cell-based; details: Homo sapiens
Protocol: as §1, with “NCI-H727” for “MKN1”, “(ATCC No. CRL-5815)” for “(JCRB0252)”, “500” for “200”, “RPMI” for “RPMI-1640”, “(PAN P04-18047)+10%” for “(Gibco #A10491)+10%”
as §2

[2] = Plasma protein binding assay (PPB), equilibrium dialysis; format: in vitro ADME; details: bovine, 10% FCS in PBS, read-out: PPB 10% FCS (% fu)
Protocol: Binding of test compounds to plasma was determined using equilibrium dialysis (ED) and quantitative mass spectrometry interfaced with liquid chromatography (LC-MS). In brief, ED was performed with dialysis devices consisting of two chambers separated by a semipermeable membrane with a molecular weight cut-off of 5-10 kg/mol. One chamber was filled with 10% FCS in PBS containing 1-10 μmol/L test compound and the other chamber was filled with phosphate-buffer saline (PBS) with or without dextran. The dialysis chamber was incubated for 3-5 hours at 37° C. After incubation, protein was precipitated from aliquots of each chamber and the concentration of test compound in the supernatant of the plasma-containing compartment (cserum) and of the buffer-containing compartment (cbuffer) was determined by LC-MS. The fraction of unbound test compound (not bound to plasma) (f) was calculated according to the following equation: […]

[3] = McIlvaine buffer pH 4.5, 24 h, read-out: solubility pH 4.5
[4] = McIlvaine buffer pH 6.8, 24 h, read-out: solubility pH 6.8

Structure (SMILES) | IC50 (Ba/F3 cells KRAS G12V) [nM] | solubility at 24 h [1, 3] [µg/mL] | solubility at 24 h [1, 4] [µg/mL] | IC50 (MKN1 cells) [nM] | IC50 (NCI-H727 cells) [nM] | fraction unbound [2]
C[C@H](Oc1nc(-c2onc3c2CCC[C@@]32CCCc3sc(N)c(C#N)c32)nc2c1n(C)c(=O)n2[C@@H]1CC2CCC1O2)[C@@H]1CCCN1C (stereo partly drawn) [I-18] | 69 | > 151 | 97 (≈ 148 µM) | 457 | 170 | 0.2
C[C@H](Oc1nc(-c2onc3c2CCC[C@@]32CCCc3sc(N)c(C#N)c32)nc2c1n(C)c(=O)n2[C@H]1CCC[C@@H]1O)[C@@H]1CCCN1C [I-19] | 243 | > 152 | > 146 | 1040 | 116 | 0.05
C[C@H](Oc1nc(-c2onc3c2CCC[C@@]32CCCc3sc(N)c(C#N)c32)nc2c1n(C)c(=O)n2[C@@H]1CCOC1)[C@@H]1CCCN1C [I-20] | 2 | > 151 | > 154 | 8 | 2 | 0.28
CCn1c(=O)n([C@@H]2CCOC2)c2nc(-c3onc4c3CCC[C@@]43CCCc4sc(N)c(C#N)c43)nc(O[C@@H](C)[C@@H]3CCCN3C)c21 [I-21] | 5 | > 157 | > 144 | 22 | 4 | 0.16
C[C@H](Oc1nc(-c2onc3c2CCC[C@@]32CCCc3sc(N)c(C#N)c32)nc2c1n(C)c(=O)n2[C@@H]1CCOC1)[C@@H]1C[C@@H](F)CN1C [I-22] | 4 | > 154 | 12 (≈ 18.5 µM) | 14 | 6 | 0.19
CO[C@H]1CCN(C)[C@@H]1[C@H](C)Oc1nc(-c2onc3c2CCC[C@@]32CCCc3sc(N)c(C#N)c32)nc2c1n(C)c(=O)n2[C@@H]1CCOC1 [I-23] | 2 | > 157 | 36 (≈ 54.5 µM) | 6 | 3 | 0.22
C[C@H](Oc1nc(-c2onc3c2CCC[C@@]32CCCc3sc(N)c(C#N)c32)nc2c1n(C)c(=O)n2C1COC1)[C@@H]1CCCN1C [I-24] | 26 | > 155 | > 140 | 355 | 35 | 0.18
C[C@H](Oc1nc(-c2onc3c2CCC[C@@]32CCCc3sc(N)c(C#N)c32)nc2c1n(C)c(=O)n2[C@@H]1CCOC1)C12CCCN1CCC2 [I-25] | 7 | > 155 | > 154 | 48 | 9 | 0.26
C[C@H](Oc1nc(-c2onc3c2CCC[C@@]32CCCc3sc(N)c(C#N)c32)nc2c1n(C)c(=O)n2[C@@H]1CCOC1)[C@@H]1CC[C@H](C)N1C [I-26] | 2 | > 158 | 127 (≈ 197 µM) | 24 | 4 | 0.17
